Test results taken from US4174407A, “Antiviral agent” (Sumitomo Chemical Company, Limited, priority 1978, dated 1979).
Converted amounts (≈) assume the structure as drawn. Counter-ions that a name gives are not always drawn. Like-named read-outs stand apart in the source and are kept apart here.

Legend:
[1] = Cytotoxicity in KB cells by microscopic examination (MCC); details: human
[2] = Cytotoxicity in HeLa cells by microscopic examination (MCC); details: human
[3] = tested on: herpes simplex type 1 (HF strain); test: Tube dilution method, virus-induced cytopathic effect in tissue culture (antiviral MIC); type: cell-based; details: for MIC: read-out: Minimum virus growth inhibition concentration (MIC)
Influenza Ao PR/8 = type: in vivo, ddY male mice; details: 7 days after infection, control 4.8
herpes virus = test: Antiviral activities on herpes virus (general statement)
[4] = tested on: herpes simplex virus type 1 HF strain; test: Effects on herpesencephalitis, intracerebrally infected mice; type: in vivo; details: for Survival ratio (no. of survivors/no. of total mice): 21st day, control 0/10
Procedure: (§1) Therapeutic effects were determined by using two experimental infections as follows.
Mice were anesthetized with ether and were infected intracerabrally (i.c.) with 30 LD50 of herpes simplex virus type 1 HF strain. Infected mice were treated with various therapeutic schedules. The antiviral effects of the compound A was determined by comparing the number of survivors at 3 weeks after viral infection and the mean survival days of the drug-treatedand placebo-treated animals.
(a) Dose of administration
(b) Schedule of administration of each route was as follows, i.c. (intracerebrally): single administration simultaneously with virus infection p.o (per os): twice administration per day during 8.5 days from 4 hr. after virus infection s.c. (subcutaneously): twice administration per day during 8.5 days from 4 hr. after virus infection i.v. (intravenously): single administration at 3 hr. after virus infection
(c) The animals were examined for 21 days and deaths occuring were recorded.
(d) Survivors at 21st day.

[5] = tested on: herpes simplex virus type 1 (HF strain); test: Effects on herpeskeratitis, eye lotion in rabbits (cure period and toxicity); type: in vivo; details: 0.5% eye lotion in 1.4% polyvinyl alcohol, every two hours, five times a day, 7 days; rabbit eye
Procedure: as §1
The corneal epithelium of each eye of rabbit was anesthetized and scratched, then each eye was infected with herpes simplex virus type 1 (HF strain). One of each infected eyes was used for treatment with the compound A and the other was used for viral control. One half % eye lotion of the compound A in 1.4% polyvinyl alcohol was applied every two hours, five times a day during 7 days 12 hr. after virus infection. Each eye was daily examined and scored the lesion on the conjunctiva, cornea and the iris for 7 days. In this score 0 means normal and 4 means maximal severity. The eyes scratched but not infected with virus were similarly treated with compound A in parallel as toxicity control.

in vivo = details: mouse
Newcastle disease virus = details: Aigami et al., J. Med. Chem. 19, 536, 1976; cited from earlier work
influenza virus = test: Antiviral activities on influenza virus (general statement)
DNA virus = details: general knowledge; cited from earlier work
[6] = host cells KB, 1000 TCD50, 72 hr, 37° C.

Work on NC12CC3CC(CC(C3)C1)C2 [Amantadine HCl, amantadine hydrochloride, reference compound] yielded an MCC at 72 h [1] of over 50 µg/mL, an MCC at 72 h [2] of over 50 µg/mL and an MIC ([3]; Human alphaherpesvirus 1, 72 h) of 50 µg/mL. The “Minimum virus growth inhibition concentration (MIC)” value [3, 6] was 50 µg/mL, the “Lung Lesion Score” value (Influenza Ao PR/8; 10 mg/kg s.c., * P<0.05 (Student's t test)) was 4.3 and the “Lung Lesion Score” value (Influenza Ao PR/8; 25 mg/kg s.c., * P<0.05 (Student's t test)) was 4.1. The “Lung Lesion Score” value (Influenza Ao PR/8; 50 mg/kg s.c., * P<0.05 (Student's t test)) was 4.0.

With NC12CCCC3CC(CCC31)C2 (centres unmarked) [Compound A, 3-Amino-4-homoisotwistane hydrochloride] the “antiviral effects on herpes virus and so on, compared with tromantadine” value (herpes virus; comparison with tromantadine) was “much superior to those of tromantadine”, the “antiviral activities on herpes virus” value (herpes virus; general statement) was “very strong antiviral activities” and the “Survival ratio (no. of survivors/no. of total mice)” value ([4]; 5 mg/kg i.c., single, simultaneously with virus infection) was 7/10. The “Mean no. of survival days” value ([4]; 5 mg/kg i.c., single, simultaneously with virus infection, control 5.6) was 7.2 days, the “Survival ratio (no. of survivors/no. of total mice)” value ([4]; 10 mg/kg i.v., single at 3 hr. after infection) was 2/10 and the “Mean no. of survival days” value ([4]; 10 mg/kg i.v., single at 3 hr. after infection, control 6.2) was 8.0 days. The “Survival ratio (no. of survivors/no. of total mice)” value ([4]; 100 mg/kg p.o., twice per day during 8.5 days from 4 hr. after infection) was 3/10, the “Mean no. of survival days” value ([4]; 100 mg/kg p.o., twice per day during 8.5 days from 4 hr. after infection, control 5.9) was 7.8 days and the “Survival ratio (no. of survivors/no. of total mice)” value ([4]; 100 mg/kg s.c., twice per day during 8.5 days from 4 hr. after infection) was 5/10. The “Mean no. of survival days” value ([4]; 100 mg/kg s.c., twice per day during 8.5 days from 4 hr. after infection, control 5.8) was 7.6 days, the “cure period as compared with control” value [5] was “did not prolong the cure period as compared with control” and the LD50 (in vivo; iv) was 32 mg/kg. For the same molecule, the LD50 (in vivo; po) was 300 mg/kg, the MCC at 72 h [1] was 50 µg/mL and the “antiviral effects on Newcastle disease virus” value (Newcastle disease virus) was “antiviral effects on Newcastle disease virus”. For the same molecule, the MCC at 72 h [2] was 50 µg/mL, the MIC ([3]; Human alphaherpesvirus 1, host cells HeLa, 1000 TCD50, 72 hr, 37° C.) was 5 µg/mL and the “Minimum virus growth inhibition concentration (MIC)” value [3, 6] was 5 µg/mL. For the same molecule, the “Lung Lesion Score” value (Influenza Ao PR/8; 7.5 mg/kg s.c., no significance mark) was 4.6, the “Lung Lesion Score” value (Influenza Ao PR/8; 15 mg/kg s.c., * P<0.05 (Student's t test)) was 4.0 and the “Lung Lesion Score” value (Influenza Ao PR/8; 30 mg/kg s.c., * P<0.05 (Student's t test)) was 4.2. For the same molecule, the “antiviral activities on influenza virus” value (influenza virus) was “very strong antiviral activities”.

For CN(C)CCOCC(=O)NC12CC3CC(CC(C3)C1)C2 [Tromantadine, tromantadine], the “anti DNA viral activities” value (DNA virus) is listed as “known to show an anti DNA viral activities”, the MCC at 72 h [1] is listed as over 50 µg/mL and the MIC ([3]; Human alphaherpesvirus 1, host cells KB, 1000 TCD50, 72 hr, 37° C.) is listed as 25 µg/mL (≈ 89.2 µM).
